The values that follow come from patent US7683064B2, “Inhibitors of Bruton's tyrosine kinase” (Roche Palo Alto LLC, priority 2008, dated 2010).

The structures appear in SMILES notation.

The test has as its target T1, Btk enzyme (His-tagged, full-length) (Homo sapiens, UniProt Q06187).
T1 construct: 5-10 nM Btk enzyme (His-tagged, full-length); His tag
Nature of the test: Bruton's Tyrosine Kinase (Btk) inhibition assay, 33P filtration capture. The format is biochemical. The conditions noted are these: 100 μM ATP, 30 μM biotinylated SH2 peptide substrate, 5-10 nM Btk, 30 min at 30° C. The source says:
The assay is a capture of radioactive ^33P phosphorylated product through filtration. The interactions of Btk, biotinylated SH2 peptide substrate (Src homology), and ATP lead to phosphorylation of the peptide substrate. Biotinylated product is bound streptavidin sepharose beads. All bound, radiolabeled products are detected by scintillation counter.
Plates assayed are 96-well polypropylene (Greiner) and 96-well 1.2 μm hydrophilic PVDF filter plates (Millipore). Concentrations reported here are final assay concentrations: 10-100 μM compounds in DMSO (Burdick and Jackson), 5-10 nM Btk enzyme (His-tagged, full-length), 30 μM peptide substrate (Biotin-Aca-[…]-NH2), 100 μM ATP (Sigma), 8 mM imidazole (Sigma, pH 7.2), 8 mM glycerol-2-phosphate (Sigma), 200 μM EGTA (Roche Diagnostics), 1 mM MnCl2 (Sigma), 20 mM MgCl2 (Sigma), 0.1 mg/ml BSA (Sigma), 2 mM DTT (Sigma), 1 μCi ^33P ATP (Amersham), 20% streptavidin sepharose beads (Amersham), 50 mM EDTA (Gibco), 2 M NaCl (Gibco), 2 M NaCl w/1% phosphoric acid (Gibco), microscint-20 (Perkin Elmer).
IC50 determinations are calculated from 10 data points per compound utilizing data produced from a standard 96-well plate assay template. One control compound and seven unknown inhibitors were tested on each plate and each plate was run twice. Typically, compounds were diluted in half-log starting at 100 μM and ending at 3 nM. The control compound was staurosporine. Background was counted in the absence of peptide substrate. Total activity was determined in the presence of peptide substrate. The following protocol was used to determine Btk inhibition.
1) Sample preparation: The test compounds were diluted at half-log increments in assay buffer (imidazole, glycerol-2-phosphate, EGTA, MnCl2, MgCl2, BSA).
• a.) rinse beads by centrifuging at 500 g • b.) reconstitute the beads with PBS and EDTA to produce a 20% bead slurry 3) Pre-incubate reaction mix without substrate (assay buffer, DTT, ATP, ^33P ATP) and mix with substrate (assay buffer, DTT, ATP, ^33P ATP, peptide substrate) 30° C. for 15 min. 4) To start assay, pre-incubate 10 μL Btk in enzyme buffer (imidazole, glycerol-2-phos-phate, BSA) and 10 μL of test compounds for 10 min at RT. 5) Add 30 μL reaction mixture without or with substrate to Btk and compounds. 6) Incubate 50 μL total assay mix for 30 min at 30° C. 7) Transfer 40 μL of assay to 150 μL bead slurry in filter plate to stop reaction. 8) Wash filter plate after 30 min, with following steps • a. 3×250 μL NaCl • b. 3×250 μL NaCl containing 1% phosphoric acid • c.

As a reminder, the IC50 is the point on the concentration scale where inhibition reaches its midpoint. A low value points to greater potency in that assay.

T1 sequence (Q06187 whole entry): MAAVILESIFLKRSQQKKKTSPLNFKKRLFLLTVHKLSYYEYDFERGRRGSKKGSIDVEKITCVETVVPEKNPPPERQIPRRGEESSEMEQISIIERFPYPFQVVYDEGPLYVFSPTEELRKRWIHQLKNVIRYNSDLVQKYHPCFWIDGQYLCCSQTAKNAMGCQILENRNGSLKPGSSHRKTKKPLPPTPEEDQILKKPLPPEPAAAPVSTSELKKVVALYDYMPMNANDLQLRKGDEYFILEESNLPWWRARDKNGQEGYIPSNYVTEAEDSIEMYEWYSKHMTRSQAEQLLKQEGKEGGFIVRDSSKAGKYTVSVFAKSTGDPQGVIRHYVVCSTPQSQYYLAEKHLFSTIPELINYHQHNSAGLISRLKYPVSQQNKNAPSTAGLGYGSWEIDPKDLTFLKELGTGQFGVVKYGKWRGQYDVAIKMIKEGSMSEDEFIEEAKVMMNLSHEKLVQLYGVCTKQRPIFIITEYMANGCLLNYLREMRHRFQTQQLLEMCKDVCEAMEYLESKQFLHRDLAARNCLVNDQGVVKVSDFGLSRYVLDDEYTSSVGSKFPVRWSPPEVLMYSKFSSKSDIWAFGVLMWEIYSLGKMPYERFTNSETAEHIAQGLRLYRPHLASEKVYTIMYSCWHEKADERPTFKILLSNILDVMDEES

The compound `CN(C)c1ccc2c(c1)CCN(c1cccc(-c3cc(Nc4ccc(C(=O)N5CCOCC5)cn4)c(=O)n(C)c3)c1)C2=O` [Example I-1, 6-Dimethylamino-2-(3-{1-methyl-5-[5-(morpholine-4-carbonyl)-pyridin-2-ylamino]-6-oxo-1,6-dihydro-pyridin-3-yl}-phenyl)-3,4-dihydro-2H-isoquinolin-1-one] returned an IC50 of 0.42 µM.

`CN(C)c1ccc2c(=O)n(-c3cccc(-c4cc(Nc5ccc(C(=O)N6CCOCC6)cn5)c(=O)n(C)c4)c3)ccc2c1` [III-1, 6-Dimethylamino-2-(3-{1-methyl-5-[5-(morpholine-4-carbonyl)-pyridin-2-ylamino]-6-oxo-1,6-dihydro-pyridin-3-yl}-phenyl)-2H-isoquinolin-1-one] showed an IC50 of 1.08 µM. Against the preceding compound, the IC50 is about 2.6-fold higher.

`CN(C)c1ccc2c(c1)CCN(c1cccc(-c3cc(Nc4ccc(C(=O)N5CCOCC5)cn4)c(=O)n(C)c3)c1CO)C2=O` [Example I-2, 6-Dimethylamino-2-(2-hydroxymethyl-3-{1-methyl-5-[5-(morpholine-4-carbonyl)-pyridin-2-ylamino]-6-oxo-1,6-dihydro-pyridin-3-yl}-phenyl)-3,4-dihydro-2H-isoquinolin-1-one] displayed an IC50 of 0.04 µM.

`Cc1c(-c2cc(Nc3ccc(C(=O)N4CCOCC4)cn3)c(=O)n(C)c2)cccc1-n1ccc2cc(N(C)C)ccc2c1=O` [III-2, 6-Dimethylamino-2-(2-methyl-3-{1-methyl-5-[5-(morpholine-4-carbonyl)-pyridin-2-ylamino]-6-oxo-1,6-dihydro-pyridin-3-yl}-phenyl)-2H-isoquinolin-1-one]: the IC50 was found to be 2.76 µM.

Compound `Cc1c(-c2cc(Nc3ccc(C(=O)N4CCOCC4)cn3)c(=O)n(C)c2)cccc1-c1c[nH]c2cc(N(C)C)ccc2c1=O` [II-2, 7-Dimethylamino-3-(2-methyl-3-{1-methyl-5-[5-(morpholine-4-carbonyl)-pyridin-2-ylamino]-6-oxo-1,6-dihydro-pyridin-3-yl}-phenyl)-1H-quinolin-4-one] returned an IC50 of 0.37 µM.
